Test results: ChEMBL document CHEMBL1125565, “Hypoxia-selective antitumor agents. 6. 4-(Alkylamino)nitroquinolines: a new class of hypoxia-selective cytotoxins” (J Med Chem, 1992)

Columns and labels:
[1] = tested on: Nucleic Acid
Description: (§1) Inhibitory concentration against DNA-bound ethidium bromide

[2] = tested on: CHO-AA8; assay: cells; conditions: Cricetulus griseus, CHO-AA8, 18 h
Description: Growth inhibition in CHO subline AA8 cells exposed for 18 hr under aerobic(air) conditions

[3] = physchem; conditions: aqueous solution
Description: (§2) Compound was evaluated for quinoline pKa value in aqueous solution at 25 degree Celsius by spectrophotometry

[4] = tested on: Nucleic Acid; remark: listed apart in the source
Description: as §1

[5] = tested on: CHO-AA8; assay: cells; conditions: Cricetulus griseus, CHO-AA8, 18 h; remark: listed apart in the source
Description: Growth inhibitory activity against CHO subline AA8 cells exposed for 18 hr under aerobic conditions

[6] = physchem; conditions: aqueous solution; remark: listed apart in the source
Description: as §2

SMILES	C50 [1] [µM]	IC50 [2] [µM]	pKa [3]	C50 [4] [µM]	IC50 [5] [µM]	pKa [6]
Cc1cc2nccc(NCCCN(C)C)c2cc1[N+](=O)[O-]	2.3	28	7.38			
CN(C)CCCCNc1ccnc2cccc([N+](=O)[O-])c12	3.1	9	6.71			
CN(C)CCCNc1cc[n+](C)c2cccc([N+](=O)[O-])c12				3.6	5.8	
CN(C)CCCNc1ccnc2cccc([N+](=O)[O-])c12	1.1	12.4				6.39
CN(C)CCCNc1ccnc2c([N+](=O)[O-])cccc12	1.2	93	6.91			
Cc1cc(NCCCN(C)C)c2c([N+](=O)[O-])cccc2n1	1.1	6.6	6.41			
Cc1ccc([N+](=O)[O-])c2c(NCCCN(C)C)ccnc12	3	29	6.84			
Cc1nc2ccccc2c(NCCCN(C)C)c1[N+](=O)[O-]	8.6	226	5.35			
CN(C)CCN(C)c1ccnc2cccc([N+](=O)[O-])c12	3.9	95	4.86			
CNc1ccc([N+](=O)[O-])c2c(NCCCN(C)C)ccnc12			4.22		98	
COc1ccc([N+](=O)[O-])c2c(NCCCN(C)C)ccnc12		6.8	6.76			
CN(C)CCCNc1ncnc2cccc([N+](=O)[O-])c12	4.3	82	4.05			
CN(C)CCCNc1c([N+](=O)[O-])cnc2ccccc12	5	34				4.43
CN(C)CCNc1ccnc2cccc([N+](=O)[O-])c12	1.5	20.9	5.77			
COCC(O)Cn1ccnc1[N+](=O)[O-] (configuration not stated) [MISONIDAZOLE]		12100				
Cc1ccc2nccc(NCCCN(C)C)c2c1[N+](=O)[O-]	3.1	170	6.15			
CN(C)CCCNc1ccnc2ccc([N+](=O)[O-])cc12	1	34				6.99
Cc1c([N+](=O)[O-])ccc2c(NCCCN(C)C)ccnc12	2.9	21	6.71			
CN(C)CCCNc1ccnc2cc([N+](=O)[O-])ccc12	0.9	46				6.77
CN(C)CCCNc1c2ccccc2nc2cccc([N+](=O)[O-])c12 [NITRACRINE]					0.024	
CN(C)CCCNc1ccnc2ccccc12	4.6	125				8.85
Cc1ccc2c(NCCCN(C)C)ccnc2c1[N+](=O)[O-]	4.6	253	5.51			
Cc1cnc2cccc([N+](=O)[O-])c2c1NCCCN(C)C	1	33	6.01			
